The numbers were not newly measured in patent US20090099557A1, “Methods and compositions for optimizing the outcomes of refractive laser surgery of the cornea” (priority 2006, published 2009), which cites them from elsewhere.

Structures are written as SMILES.

Data set [1] relates to epithelial cells. As to conditions: 18% ethanol for 25 seconds; single cell layers of epithelial cells, in vitro.
The subject of data set [2] is epithelial cells. As to conditions: ethanol-assisted epithelial separation; Invest Opthalmol Vis Sci 43: 2593-2602 (2002); J Cataract Refract Surg 28: 1841-46 (2002).

On to `CCO` [ethanol], for which the “toxic effect of the alcohol on epithelial cells” value in data set [1] is “toxic effect”. Also, the “toxicity to epithelial cells” value in data set [2] is “toxic to epithelial cells in both a dose- and time-dependent manner”.
